Experimental data reported in US6656921B1, “Use of zinc hyaluronate against peptic ulcer” (Richter Gedeon Vegyeszeti Gyar RT., priority 1997, dated 2003).

How the values were obtained:
Assay type in all cases: in vivo, rat
[1] = test system: acidified ethanol induced gastric lesion; test: Inhibition of acidified-ethanol induced gastric lesions
Description: Female RG-Wistar rats weighing between 120-150 g were used. Before experiments animals were fasted for 24 hours but received water ad libitum.
Experiments were carried out according to the technique similar to that described by A. Robert [Gastroenterology 77, […] (1979)].
Acidified ethanol (mixture of 50 ml of abs. ethanol and 1 ml of concentrated HCI) was used as strong irritants. Dose of acidified ethanol was 0.5 ml/100 g body weight with intragastric administration. Test compounds were given orally 30 minutes before the acidified ethanol challenge. When the duration of action of test compound was studied test material was administered 60 or 120 minutes earlier to the irritating effect induced by acidified-ethanol effect. One hour after the acidified ethanol treatment rats were sacrificed by cervical dislocation. Stomachs were removed and opened along the greater curvature and mildly washed down. The longitudinal hemorrhagic lesions were assayed by length.
ED50 value was defined as the dose that gave a 50% decrease in ulcer index.

[2] = test system: acidified ethanol induced gastric damage; test: Effect of L-NAME (endogenous NO) on protection against acidified-ethanol induced gastric damage
Description: To study the mechanism of action of the compound to be tested, the involvement of endogenous NO in the development of acidified-ethanol induced gastric damage was also studied by intraperitoneal administration of L-N^G-nitroarginine methyl ester (L-NAME). L-NAME at a dose of 25 mg/kg was injected 15 minutes before the test compound. In subsequent experiments the test compound (p.o.), L-NAME (25 mg/kg i.p.), L-arginine (400 mg/kg i.v.) were administered 30, 45 or 60 minutes before oral administration of acidified-ethanol.
The connection between the cytoprotective effect of zinc hyaluronate and endogenic NO was studied by using an inhibitor of the nitrogen(II) oxide biosynthesis namely, N^G-nitro-L-arginine methyl ester (L-NAME). Considering that zinc hyaluronate(II) and zinc hyaluronate(M) had shown the same activity in acidified ethanol test, the latter was the only one tested in this experiment.

[3] = test system: platelet activating factor (PAF) induced gastric lesion; test: Inhibition of gastric damage induced by platelet activating factor (PAF); conditions: for Inhibition: 30 min before PAF; for Lesion score/stomach ± S.E.M.: 30 min before PAF infusion, score 0-3
Description: Male, RG-Wistar rats weighing between 200-250 g were used. Before the experiments animals were fasted for 24 hours but received water ad libitum. Experiments were carried out according to the technique similar to that described by Wallace and Whittle (1986). [Br.J.Pharmac., 89,415, (1986)]. Animals were anaesthetized by intraperitoneal administration of urethane at a dose of 1 g/kg in a volume of 10 ml/kg. Femoral vein was then prepared and cannulated for administration of ulcerogenic PAF. After the surgery PAF was infused intravenously at a rate of 0.1 ml/min for ten minutes at a dose of 200 ng/kg/min. Test compounds were given 30 minutes before the PAF challenge. One hour after the infusion of PAF animals were sacrificed by cervical dislocation; their stomachs were removed and opened along the greater curvature. The hemorrhagic erosions were evaluated by a zero to three scoring system.

[4] = test system: acetic acid induced chronic gastric ulcer; test: Inhibition of acetic acid induced chronic gastric ulcer; conditions: for Ulcerated area mm^2 ± S.E.M.: day 5 to 14 after surgery
Description: Female, RG Wistar rats weighing between 120-150 g were used. Before the surgery animals were deprived of food for 24 hours but received water ad libitum. The chronic gastric ulcer was induced by the injection of 25 μl/animal of 20% (v/v) acetic acid into the gastric wall under light ether anaesthesia according to the method similar to that described by Takagi et al. (1969). The oral treatment with the test compounds was started five days after the surgery and continued in a once-a-day regimen up to the 14th day. The animals were killed on the 15th day and their stomachs were dissected. The severity of ulceration was evaluated by the measurement of the diameter of the ulcers and the area affected was calculated. The healing effect was expressed as differences in percentage between the control and test group values.

[5] = test system: gastrointestinal motility; test: Gastrointestinal motility in the charcoal propulsion test; conditions: 100 mg/kg p.o.
Description: Experiments were performed on female, RG-Wistar rats weighing 120-140 g, which were fasted for 24 hours but received water ad libitum.
The experimental procedure was carried out according to the technique similar to that described of P. A. Janssen and A. J. Jageneau [J. Pharm. Pharmacel. 9, 381 (1957)].
Test compounds were given orally at a dose of 100 mg/kg. Control animals received physiological saline solution instead of test compounds. 30 minutes later, the 5% (w/v) charcoal suspension was administered orally at a volume of 0.5 ml/animal. 60 minutes after the charcoal treatment the animals were sacrificed by cervical dislocation. The intestine from pylorus to cecum was removed, its lengths measured along with the distance traversed by the charcoal meal.
Motility was expressed as the ratio of length of charcoal suspension to the length of the whole intestine.

[6] = 10 mg/kg p.o., 30 min before acidified ethanol
[7] = 25 mg/kg p.o., 30 min before acidified ethanol
[8] = 25 mg/kg p.o., pretreatment time 60 minutes
[9] = 25 mg/kg p.o., pretreatment time 120 minutes
[10] = 50 mg/kg p.o., 30 min before acidified ethanol
[11] = 50 mg/kg p.o., pretreatment time 60 minutes
[12] = 50 mg/kg p.o., pretreatment time 120 minutes
[13] = 100 mg/kg p.o., 30 min before acidified ethanol
[14] = 100 mg/kg p.o., pretreatment time 60 minutes
[15] = 100 mg/kg p.o., pretreatment time 120 minutes
[16] = D-Arg + L-NAME + ZH/M, 400 + 25 + 50 mg/kg
[17] = L-Arg + L-NAME + ZH/M, 400 + 25 + 50 mg/kg

## zinc hyaluronate [Zinc hyaluronate (M)]
[1]; [6]
  Inhibition: 47.7%
  Lesion length/stomach mm ± S.E.M.: 57.9 ± 8.2 mm
[1]; [7]
  Inhibition: 69.9%
  Lesion length/stomach mm ± S.E.M.: 33.3 ± 7.7 mm
[1]; [8]
  Inhibition: 28.7%
  Lesion length/stomach mm ± S.E.M.: 49.7 ± 5.9 mm
[1]; [9]
  Inhibition: 12.2%
  Lesion length/stomach mm ± S.E.M.: 53.2 ± 7.7 mm
[1]; [10]
  Inhibition: 88.3%
  Lesion length/stomach mm ± S.E.M.: 13.0 ± 3.0 mm
[1]; [11]
  Inhibition: 45.6%
  Lesion length/stomach mm ± S.E.M.: 37.9 ± 12.2 mm
[1]; [12]
  Inhibition: 45.9%
  Lesion length/stomach mm ± S.E.M.: 32.8 ± 7.5 mm
[1]; [13]
  Inhibition: 97.6%
  Lesion length/stomach mm ± S.E.M.: 2.7 ± 1.4 mm
[1]; [14]
  Inhibition: 93.4%
  Lesion length/stomach mm ± S.E.M.: 4.6 ± 1.7 mm
[1]; [15]
  Inhibition: 83.0%
  Lesion length/stomach mm ± S.E.M.: 10.3 ± 4.6 mm
[1]; p.o., 30 min pretreatment
  ED50 (dose giving 50% decrease in ulcer index): 10.4 mg/kg
[2]; [16]
  Inhibition (compared with the vehicle + vehicle group): 48.4%
  Lesion length/stomach mm ± S.E.M.: 31.2 ± 3.5*d mm
[2]; [17]
  Inhibition (compared with the vehicle + vehicle group): 60.2%
  Lesion length/stomach mm ± S.E.M.: 24.1 ± 4.4*c mm
[2]; L-NAME 25 mg/kg
  Effect of L-NAME pretreatment on the gastroprotective activity (in words): considerably reduced
[2]; L-NAME + ZH/M, 25 + 50 mg/kg
  Inhibition (compared with the vehicle + vehicle group): 31.9%
  Lesion length/stomach mm ± S.E.M.: 41.2 ± 4.6*b mm
[2]; Vehicle + ZH/M, 0 + 50 mg/kg
  Inhibition (compared with the vehicle + vehicle group): 69.6%
  Lesion length/stomach mm ± S.E.M.: 18.4 ± 2.3 mm
[3]; 50 mg/kg p.o.
  Inhibition: 27.3%
  Lesion score/stomach ± S.E.M.: 1.6 ± 0.4
[3]; 100 mg/kg p.o.
  Inhibition: 40.9%
  Lesion score/stomach ± S.E.M.: 1.3 ± 0.2
[3]; rat, in vivo
  Protection against ulcerogenic effect of PAF (in words): strongly reduced the ulcerogenic effect of PAF
[4]; 0.1 mg/kg p.o. once a day
  Ulcerated area mm^2 ± S.E.M.: 9.4 ± 2.3 mm^2
[4]; 1.0 mg/kg p.o. once a day
  Ulcerated area mm^2 ± S.E.M.: 7.6 ± 1.4 mm^2
[4]; rat, in vivo
  Effect on healing of acetic acid induced chronic ulcer (in words): accelerated the healing
[5]
  Effect on the intestinal motility (in words): absence of change in activity
  Ratio of charcoal suspension to the whole intestinal part: 0.83 ± 0.03
[5]; 30 min before charcoal, 60 min after charcoal
  Propulsion of charcoal suspension mm ± S.E.M.: 655 ± 3.9 mm
